Laboratory results from patent US20040063716A1, “Cholesterol biosynthesis inhibitors containing as the active ingredient tricyclic spiro compounds” (priority 2000, published 2004).

What was measured:
human plasma = experiment: Measurement of intrinsic coagulation time (APTT) in vitro; type: biochemical
Protocol: Activated partial thromboplastin time (APTT) is measured in the presence of the test compounds diluted at various concentrations. A test compound diluted with DMSO at various concentrations is mixed with human plasma and APTT reagent. The mixture is incubated at 37° C. for 2 minutes; calcium chloride (25 mM) is added to the mixture; and the coagulation time is thereafter measured. It should be noted that the anticoagulant activity of the test compound is described in terms of the concentration required to double the coagulation time for the case where no test compound is added.

human FXa = target: T1, human FXa (Homo sapiens, UniProt P00742); experiment: Measurement of human FXa inhibitory action (chromogenic substrate S-2222); type: biochemical; settings: human FXa 0.019 U/ml, S-2222 0.4 mM, 37° C., pH 7.5
T1 construct: purchased Enzyme Research Laboratories, Inc
Protocol: In vitro FXa inhibitory activity is measured in accordance with the method of Kettner et al. (Journal of Biological Chemistry, vol. 265, pages 18289 to 18297, 1990). To be more specific, human FXa (product of Enzyme Research Laboratories, Inc., 0.019 U/ml) is mixed with a test compound diluted with dimethylsulfoxide (DMSO) at various concentrations and a synthetic substrate S-2222 (Chromogenix AB, 0.4 mM). The mixtures are incubated at 37° C. in Tris-hydrochloric acid buffer (pH 7.5) while the absorbance at 405 nm is measured continuously. To calculate the FXa inhibitory activity of the test compound, the initial reaction velocity is compared with the value for a control containing no test compound. It should be noted that the FXa inhibitory activity of the test compound is generally indicated as IC50.

T1 sequence (P00742 235-488 limits assumed): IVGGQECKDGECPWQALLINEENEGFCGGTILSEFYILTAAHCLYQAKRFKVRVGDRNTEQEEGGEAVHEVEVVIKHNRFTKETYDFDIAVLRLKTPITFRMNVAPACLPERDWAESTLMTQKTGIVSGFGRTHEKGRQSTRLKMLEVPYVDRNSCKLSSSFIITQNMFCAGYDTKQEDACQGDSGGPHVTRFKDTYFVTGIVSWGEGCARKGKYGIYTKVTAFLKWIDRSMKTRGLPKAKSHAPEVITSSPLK
T1 sequence (P00742 41-179 partner limits assumed): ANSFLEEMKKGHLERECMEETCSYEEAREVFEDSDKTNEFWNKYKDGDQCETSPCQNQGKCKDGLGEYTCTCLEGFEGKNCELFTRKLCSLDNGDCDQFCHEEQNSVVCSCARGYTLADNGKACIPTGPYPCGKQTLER

Row | IC50 (human FXa) [nM] | Structure (SMILES) | Concentration required to double coagulation time (human plasma) [µM]
1 |  | COCC12CN(S(=O)(=O)c3cc4cc(Cl)ccc4o3)CC(=O)N1CC1(CCN(c3ccncc3)CC1)N2C (stereo not shown) [Example 533, 1,4,7-Triaza-4-(5-chlorobenzo[b]furan-2-ylsulfonyl)-6-(methoxymethyl)-7-methyl-1′-(4-pyridyl)spiro[bicyclo[4.3.0]nonane-8,4′-piperidin]-2-one] | 0.35
2 | 3.4 | CCOC(=O)NCC12CN(S(=O)(=O)c3ccc4cc(Cl)ccc4c3)CC(=O)N1CC1(CCN(c3ccncc3)CC1)O2 (stereo not shown) [Example 59, 1,4-Diaza-4-(6-chloronaphthalen-2-ylsulfonyl)-6-(ethoxycarbonylaminomethyl)-7-oxa-1′-(4-pyridyl)spiro[bicyclo[4.3.0]nonane-8,4′-piperidin]-2-one] | 
3 |  | CC12CN(S(=O)(=O)c3ccc4cc(Cl)ccc4c3)CC(=O)N1CC1(CCN(c3ccncc3)CC1)O2 (stereo not shown) [Example 69, 1,4-Diaza-4-(6-chloronaphthalen-2-ylsulfonyl)-6-methyl-7-oxa-1′-(4-pyridyl)spiro[bicyclo[4.3.0]nonane-8,4′-piperidin]-2-one] | 0.36
4 |  | COCC12CN(S(=O)(=O)c3ccc4ccccc4c3)CC(=O)N1CC1(CCN(c3ccncc3)CC1)O2 (stereo not shown) [Example 6, 1,4-Diaza-6-(methoxymethyl)-4-(2-naphthalenesulfonyl)-7-oxa-1′-(4-pyridyl)spiro[bicyclo[4.3.0]nonane-8,4′-piperidin]-2-one] | 0.99
5 |  | COCC12CN(S(=O)(=O)C3=Cc4ccc(Cl)cc4OC3)CC(=O)N1CC1(CCN(c3ccncc3)CC1)O2 (stereo not shown) [Example 388, 1,4-Diaza-4-(7-chloro-2H-benzopyran-3-sulfonyl)-6-(methoxymethyl)-7-oxa-1′-(4-pyridyl)spiro[bicyclo[4.3.0]nonane-8,4′-piperidin]-2-one] | 0.22
6 | 2.8 | O=C1CN(S(=O)(=O)c2ccc3cc(Cl)ccc3c2)CC2(CN3CCOCC3)OC3(CCN(c4ccncc4)CC3)CN12 (stereo not shown) [Example 61, 1,4-Diaza-4-(6-chloronaphthalen-2-ylsulfonyl)-6-(morpholinomethyl)-7-oxa-1′-(4-pyridyl)spiro[bicyclo[4.3.0]nonane-8,4′-piperidin]-2-one] | 
7 | 1.8 | COCC12CN(S(=O)(=O)c3ccc4nc(Cl)ccc4c3)CC(=O)N1CC1(CCN(c3ccncc3)CC1)O2 (stereo not shown) [Example 770, 1,4-Diaza-4-(2-chloroquinolin-6-ylsulfonyl)-6-(methoxymethyl)-7-oxa-1′-(4-pyridyl)spiro[bicyclo[4.3.0]nonane-8,4′-piperidin]-2-one] | 
8 | 5.7 | O=C1CN(S(=O)(=O)c2ccc3cc(Cl)ccc3c2)CC2NC3(CCN(c4ccncc4)CC3)CN12 (stereo not shown) [Example 765, 1,4,7-Triaza-4-(6-chloronaphthalen-2-ylsulfonyl)-1′-(4-pyridyl)spiro[bicyclo[4.3.0]nonane-8,4′-piperidin]-2-one] | 
9 |  | O=C1CN(S(=O)(=O)c2ccc3cc(Cl)ccc3c2)CC2OC3(CCN(c4ccncc4)CC3)CN12 (stereo not shown) [Example 9, 1,4-Diaza-4-(6-chloronaphthalen-2-ylsulfonyl)-7-oxa-1′-(4-pyridyl)spiro[bicyclo[4.3.0]nonane-8,4′-piperidin]-2-one] | 0.29
10 |  | NCC12CN(S(=O)(=O)c3ccc4cc(Cl)ccc4c3)CC(=O)N1CC1(CCN(c3ccncc3)CC1)O2 (stereo not shown) [Example 58, 6-(Aminomethyl)-1,4-diaza-4-(6-chloronaphthalen-2-ylsulfonyl)-7-oxa-1′-(4-pyridyl)spiro[bicyclo[4.3.0]nonane-8,4′-piperidin]-2-one] | 0.18
11 | 1.5 | CCOC(=O)C12CN(S(=O)(=O)c3ccc4cc(Cl)ccc4c3)CC(=O)N1CC1(CCN(c3ccncc3)CC1)O2 (stereo not shown) [Example 25, 1,4-Diaza-4-(6-chloronaphthalen-2-ylsulfonyl)-6-(ethoxycarbonyl)-7-oxa-1′-(4-pyridyl)spiro[bicyclo[4.3.0]nonane-8,4′-piperidin]-2-one] | 
12 |  | O=C1CN(S(=O)(=O)c2cc3ccc(Cl)cc3s2)CC2NC3(CCN(c4ccncc4)CC3)CN12 (stereo not shown) [Example 275, 1,4,7-Triaza-4-(6-chlorobenzo[b]thiophen-2-ylsulfonyl)-1′-(4-pyridyl)spiro[bicyclo[4.3.0]nonane-8,4′-piperidin]-2-one] | 0.17
13 | 0.6 | O=C1CN(S(=O)(=O)c2cc3ccc(Cl)cc3s2)CC2OC3(CCN(c4ccncc4)CC3)CN12 (stereo not shown) [Example 213, 1,4-Diaza-4-(6-chlorobenzo[b]thiophen-2-ylsulfunyl)-7-oxa-1′-(4-pridyl)spiro[bicyclo[4.3.0]nonane-8,4′-piperidin]-2-one] | 
14 |  | O=C1CN(S(=O)(=O)C=Cc2ccc(Cl)s2)CC2OC3(CCN(c4ccncc4)CC3)CN12 (stereo not shown) [Example 600, 1,4-Diaza-4-[2-(5-chlorothiophen-2-yl)ethenesulfonyl]-7-oxa-1′-(4-pyridyl)spiro[bicyclo[4.3.0]nonane-8,4′-piperidin]-2-one] | 0.22
15 | 5.4 | O=C1CN(S(=O)(=O)c2ccc3cc(Cl)ccc3c2)CC2OC3(CCN(c4ccncn4)CC3)CN12 (stereo not shown) [Example 10, 1,4-Diaza-4-(6-chloronaphthalen-2-ylsulfonyl)-7-oxa-1′-(4-pyrimidinyl)spiro[bicyclo[4.3.0]nonane-8,4′-piperidin]-2-one] | 
16 |  | COCC12CN(S(=O)(=O)c3ccc4cc(Cl)ccc4c3)CC(=O)N1CC1(CCN(c3cc[n+](C)cc3)CC1)O2.Cc1ccc(S(=O)(=O)[O-])cc1 (stereo not shown) [Example 23, 4-[1,4-Diaza-4-(6-chloronaphthalen-2-ylsulfonyl)-6-(methoxymethyl)-7-oxa-2-oxospiro[bicyclo[4.3.0]nonane-8,4′-piperidin-1′-yl]]-1-methylpyridinium p-Toluenesulfonate] | 0.62
17 | 5.3 | O=C1CN(S(=O)(=O)C=Cc2ccc(Cl)s2)CC2NC3(CCN(c4ccncc4)CC3)CN12 (stereo not shown) [Example 628, 1,4,7-Triaza-4-[2-(5-chlorothiophen-2-yl)ethenesulfonyl]-1′-(4-pyridyl)spiro[bicyclo[4.3.0]nonane-8,4′-piperidin]-2-one] | 
18 | 3.2 | COCC12CN(S(=O)(=O)c3ccc4cc(Cl)ccc4c3)CC(=O)N1CC1(CCN(c3ccncc3)CC1)O2 (stereo not shown) [Example 1, 1,4-Diaza-4-(6-chloronaphthalen-2-ylsulfonyl)-6-(methoxymethyl)-7-oxa-1′-(4-pyridyl)spiro[bicyclo[4.3.0]nonane-8,4′-piperidin]-2-one] | 
19 |  | COCC12CN(S(=O)(=O)c3cc4ccc(Cl)cc4s3)CC(=O)N1CC1(CCN(c3ccncc3)CC1)N2 (stereo not shown) [Example 461, 1,4,7-Triaza-4-(6-chlorobenzo[b]thiophen-2-ylsulfonyl)-6-(methoxymethyl)-1′-(4-pyridyl)spiro[bicyclo[4.3.0]nonane-8,4′-piperidin]-2-one] | 0.16
20 | 5.9 | O=C1CN(S(=O)(=O)c2ccc3nc(Cl)ccc3c2)CC2OC3(CCN(c4ccncc4)CC3)CN12 (stereo not shown) [Example 760, 1,4-Diaza-4-(2-chloroquinolin-6-ylsulfonyl)-7-oxa-1′-(4-pyridyl)spiro[bicyclo[4.3.0]nonane-8,4′-piperidin]-2-one] | 
21 |  | COCC12CN(S(=O)(=O)c3cc4cc(Cl)ccc4o3)CC(=O)N1CC1(CCN(c3ccncc3)CC1)N2 (stereo not shown) [Example 471, 1,4,7-Triaza-4-(5-chlorobenzo[b]furan-2-ylsulfonyl)-6-(methoxymethyl)-1′-(4-pyridyl)spiro[bicyclo[4.3.0]nonane-8,4′-piperidin]-2-one] | 0.27
22 |  | CC(C)OC(=O)C12CN(S(=O)(=O)c3ccc4cc(Cl)ccc4c3)CC(=O)N1CC1(CCN(c3ccncc3)CC1)O2 (stereo not shown) [Example 29, 1,4-Diaza-4-(6-chloronaphthalen-2-ylsulfonyl)-6-(isopropoxycarbonyl)-7-oxa-1′-(4-pyridyl)spiro[bicyclo[4.3.0]nonane-8,4′-piperidin]-2-one] | 0.90
23 |  | COCC12CN(S(=O)(=O)c3cc4ccc(Cl)cc4s3)CC(=O)N1CC1(CCN(c3ccncc3)CC1)O2 (stereo not shown) [Example 399, 1,4-Diaza-4-(6-chlorobenzo[b]thiophen-2-ylsulfonyl)-6-(methoxymethyl)-7-oxa-1′-(4-pyridyl)spiro[bicyclo[4.3.0]nonane-8,4′-piperidin]-2-one] | 0.18
24 |  | COCCOC(=O)C12CN(S(=O)(=O)c3ccc4cc(Cl)ccc4c3)CC(=O)N1CC1(CCN(c3ccncc3)CC1)O2 (single isomer, unassigned; (-)) [Example 42, (−)-1,4-Diaza-4-(6-chloronaphthalen-2-ylsulfonyl)-6-(2-methoxyethoxycarbonyl)-7-oxa-1′-(4-pyridyl)spiro[bicyclo[4.3.0]nonane-8,4′-piperidin]-2-one] | 0.20
25 |  | COCC12CN(S(=O)(=O)C=Cc3ccc(Cl)s3)CC(=O)N1CC1(CCN(c3ccncc3)CC1)N2C (stereo not shown) [Example 740, 1,4,7-Triaza-4-[2-(5-chlorothiophen-2-yl)ethenesulfonyl]-6-(methoxymethyl)-7-methyl-1′-(4-pyridyl)spiro[bicyclo[4.3.0]nonane-8,4′-piperidin]-2-one] | 0.18
